The values that follow come from patent publication US20180353501A1 (Arvinas, Inc., priority 2017, published 2018).

In one assay the target is T1, MAK (Homo sapiens, UniProt P20794).
T1 construct: purchased DiscoverRx Corporation (KINOMEscan platform, service)
As to the kind of experiment: KINOMEscan in vitro kinase binding. Particulars: screened at 1000 nM; lower number = stronger binding. Here is the method:
In Vitro Kinase Binding Affinity Determination for Example 1 and Example 2.
PROTAC in vitro binding affinities (Kd) to c-Met was determined using the KINOMEscan™ platform (DiscoverRx Corporation). The compounds were solubilized in DMSO and sent to DiscoverRx Corporation as 10 μM stock solutions.
Example 1 and Example 2 were screened at a 1000 nM concentration, and the results of the binding interactions are reported in “% Ctrl”, where a lower number indicates stronger binding. % Ctrl=[(test compound signal−positive control signal)/(negative control signal−positive control signal)]×100, wherein the negative control was DMSO.

The target in assay [1] is T2, p38α (Homo sapiens, UniProt Q16539).
T2 construct: selectively degrades p38α, whereas exemplary PROTAC 46 (10-atom linker, phenyl attachment) selectively degrades p38δ in MDA-MB-231 cells; endogenous in cells; host or cells: MDA-MB-231
As to the kind of experiment: Cellular assay of target protein degradation (MDA-MB-231 cells, ELISA). In kind it is cell-based. Here is the method:
(§1) Protocol of the cellular assay of target protein degradation (MDA-MB-231 cells, ELISA).
(§2) For detection Cell Signaling PathScan Sandwich ELISA Catalog#12850 was used. MDA-MB-231 cells and […] were cultured in ATCC DMEM+ATCC FBS and plated 40,000/well 100 μl/well in RPMI P/S with 5% CSS Omega (bovine) serum into a 96 well plate. The cells were grown for a minimum of 3 days, dosed with compounds in 0.1% DMSO (diluted with 5% CSS) and incubated with aspiration for 4 hours. 100 μl of 1× Cell Signaling lysis buffer #9803 (36 mL dH2O+4 mL Cell Signaling lysis buffer) was added. The incubation was placed on cold room shaker for 10 minutes at speed 8-9.5 μl to 100 μL of Diluent was transferred to ELISA plate (0.15 μg/mL-0.075 μg/mL) and stored at 4° C. overnight on cold room shaker speed 5 (gentle swirl) and then shaken next morning at 37° C. for 30 minutes. The preparation was washed 4×200 μl with ELISA wash buffer and aspirated with eight-channel aspirator. 100 μl/well of target protein detection antibody was added after, which the preparation was covered and shaken at 37° C. for 1 hour. 100 μl TMB was added, and the mixture was shaken for 5 min while under observation. When TMB turned light blue, 100 μl of Stop solution was added, and the mixture was shaken and read at 450 nm. Also read at 562 nm for background subtraction.
A general note: ELISA stands for enzyme-linked immunosorbent assay.

In assay [2] the target is T3, p38δ (Homo sapiens, UniProt O15264).
T3 construct: endogenous in cells; host or cells: MDA-MB-231 (intact cells for degradation; cleared cell lysate for CETSA)
T3 sequence (O15264 1-365): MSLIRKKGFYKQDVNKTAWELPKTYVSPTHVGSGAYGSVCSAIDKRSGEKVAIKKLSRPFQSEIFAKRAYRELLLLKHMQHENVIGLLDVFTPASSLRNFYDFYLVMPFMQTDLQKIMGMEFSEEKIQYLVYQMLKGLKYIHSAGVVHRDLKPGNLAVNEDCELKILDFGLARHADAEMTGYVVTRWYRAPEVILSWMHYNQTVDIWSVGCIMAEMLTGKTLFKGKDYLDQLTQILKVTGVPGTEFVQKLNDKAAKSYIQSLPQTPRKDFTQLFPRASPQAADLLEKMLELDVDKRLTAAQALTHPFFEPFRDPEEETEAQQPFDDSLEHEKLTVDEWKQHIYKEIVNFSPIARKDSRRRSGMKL
The description is as above. In kind it is cell-based. Particulars: for DC50: read-out: p38δDC50/nM [MDA-MB-231]. Here is the method:
as §1, §2

The target in assay [3] is T2, p38α. As to the kind of experiment: Western blot survey of p38 isoform degradation in MDA-MB-231 cells (incl. proteasome rescue, CHX chase, washout). It is filed as cell-based. Particulars: MDA-MB-231 cells, western blot; for Dmax: read-out: p38α Dmax (maximum percentage of degradation achieved). Here is the method: (§3) FIGS. 11A and 11B. Survey of p38 isoform degradation with foretinib-based VHL PROTACs (related to FIGS. 9A-9C and Table 13). (A) Western blots of amide series PROTACs tested in increasing concentrations (0.025, 0.100, 0.250, 1.0, 5.0 μM) on MDA-MB-231 cells, in duplicate. (B) Same as in (A) but with the phenyl series PROTACs. Summary table of the DC50 (concentration at which half-maximal degradation is achieved) and Dmax (maximum percentage of degradation achieved) is reported, per exemplary PROTAC, in Table 13.
(§4) FIGS. 13A, 13B, 13C, and 13D. Exemplary compounds 50 and 46 degrade p38 isoforms in a manner that is rapid, sustained, and proteasome-dependent. (A) MDA-MB-231 cells were either pre-treated or not with the proteasome inhibitor epoxomicin (1 μM) or the neddylation inhibitor MLN4924 (1 μM) for 30 minutes and subsequently treated with either vehicle (DMSO), exemplary compound 50 (250 nM), or exemplary compound 46 (250 nM) for 6 hours. (B) Quantitative real-time PCR was performed after 24 hours of treatment with either vehicle (DMSO), exemplary compound 50 (250 nM), or exemplary compound 46 (250 nM) in MDAMB-231 cells. The dotted line represents DMSO-treated conditions standardized to a value of 1.0 and mRNA abundance (per treatment group) is represented as a foldchange relative to that value. Data is based on biological duplicates and is normalized to beta-tubulin. (C) Cycloheximide (CHX) chase assay. MDA-MB-231 cells were pre-treated with 100 μg/mL CHX for 1 hour prior to treating for the indicated times with either vehicle (DMSO), exemplary compound 50 (250 nM), or exemplary compound 46 (250 nM). Tubulin-normalized p38α and p38δ abundance values are reported beneath individual lanes. (D) MDA-MB231 cells were treated with either vehicle (DMSO), exemplary compound 50 (250 nM), or exemplary compound 46 (250 nM) for 24 hours before re-plating onto new plastic in fresh medium for an additional 24, 48, or 72 hours (“washout” conditions).
(§5) Cell culture. MDA-MB-231 and HeLa cells were obtained from the American Type Culture Collection (ATCC), cultured in RPMI-1640 (1×) and DMEM (1×) medium, respectively, containing 10% fetal bovine serum (FBS) and 1% penicillin-streptomycin and grown in a humidified incubator at 37° C. and 5% CO2.
(§6) Lysates from MDA-MB-231 cells were washed once with ice cold PBS (1×), followed by lysis in buffer containing 25 mM Tris [pH 7.5], 0.25% sodium deoxycholate, 1% Triton X-100, supplemented with 1× protease inhibitor cocktail (Roche) and phosphatase inhibitors (10 mM NaF, 1 mM Na3VO4, and 20 mM β-glycerophosphate), unless otherwise noted. Lysates were spun at 14,000×g for 10 minutes at 4° C. and supernatant was evaluated for protein content using a Pierce BCA Protein Assay (Thermo Fisher Scientific). 25 to 50 μg of protein was loaded onto 10% SDS-PAGE gels or 4-20% Criterion TGX precast gradient gels (Bio-Rad), transferred to nitrocellulose membranes, and probed with the specified antibodies overnight at 4° C. in 1×TBS-Tween (Tris buffered saline plus 0.02% Tween 20) containing 5% non-fat milk. Immunoblots were visualized using a Bio-Rad ChemiDoc imaging instrument and subsequently processed and quantified using the accompanying Bio-Rad ImageLab software.
(§7) MDA-MB-231 cells were plated at 3×10^5 cells per well in a 6-well dish, allowed to adhere overnight, and switched to serum-free RPMI-1640 (1×) media for 16 hours. Cells were then pre-treated with cycloheximide (Sigma) at 100 μg mL^−1 for 1 hour prior to adding either vehicle (DMSO) or PROTAC (250 nM). At the indicated timepoints, cells were immediately placed on ice, rinsed with 1×PBS, lysed, and boiled.
(§8) MDA-MB-231 cells were plated at 1.5×10^5 cells per well in a 6-well dish and allowed to adhere overnight. On the following day, all cells were treated with either vehicle (DMSO) or PROTAC (250 nM). […]
On the technique in general: In western blotting, separated proteins are transferred to a membrane and probed.

Assay [4] addresses T3, p38δ. Described as above. In kind it is cell-based. Particulars: MDA-MB-231 cells, western blot. The method, then:
as §3, §4, §5, §6, §7, §8

For the next assay, the target named is T4, cMET (Homo sapiens, UniProt P08581).
T4 construct: endogenous in cells; host or cells: MDA-MB-231
As to the kind of experiment: Cellular assay of target protein degradation (MDA-MB-231 cells, ELISA). In kind it is cell-based. The method, then: as §1, §2

[5] abbreviates: read-out: p38α DC50 (concentration at which half-maximal degradation is achieved).

T2 sequence (Q16539 whole entry): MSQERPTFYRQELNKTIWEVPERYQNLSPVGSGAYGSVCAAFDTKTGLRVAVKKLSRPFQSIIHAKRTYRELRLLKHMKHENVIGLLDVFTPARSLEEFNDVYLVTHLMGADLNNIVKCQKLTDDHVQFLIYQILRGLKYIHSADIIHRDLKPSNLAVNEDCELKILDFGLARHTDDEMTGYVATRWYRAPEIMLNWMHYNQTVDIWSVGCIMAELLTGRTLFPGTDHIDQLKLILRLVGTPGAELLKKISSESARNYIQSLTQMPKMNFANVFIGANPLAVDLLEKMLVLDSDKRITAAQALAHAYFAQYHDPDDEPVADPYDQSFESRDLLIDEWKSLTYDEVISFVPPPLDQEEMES
T4 sequence (P08581 25-1390): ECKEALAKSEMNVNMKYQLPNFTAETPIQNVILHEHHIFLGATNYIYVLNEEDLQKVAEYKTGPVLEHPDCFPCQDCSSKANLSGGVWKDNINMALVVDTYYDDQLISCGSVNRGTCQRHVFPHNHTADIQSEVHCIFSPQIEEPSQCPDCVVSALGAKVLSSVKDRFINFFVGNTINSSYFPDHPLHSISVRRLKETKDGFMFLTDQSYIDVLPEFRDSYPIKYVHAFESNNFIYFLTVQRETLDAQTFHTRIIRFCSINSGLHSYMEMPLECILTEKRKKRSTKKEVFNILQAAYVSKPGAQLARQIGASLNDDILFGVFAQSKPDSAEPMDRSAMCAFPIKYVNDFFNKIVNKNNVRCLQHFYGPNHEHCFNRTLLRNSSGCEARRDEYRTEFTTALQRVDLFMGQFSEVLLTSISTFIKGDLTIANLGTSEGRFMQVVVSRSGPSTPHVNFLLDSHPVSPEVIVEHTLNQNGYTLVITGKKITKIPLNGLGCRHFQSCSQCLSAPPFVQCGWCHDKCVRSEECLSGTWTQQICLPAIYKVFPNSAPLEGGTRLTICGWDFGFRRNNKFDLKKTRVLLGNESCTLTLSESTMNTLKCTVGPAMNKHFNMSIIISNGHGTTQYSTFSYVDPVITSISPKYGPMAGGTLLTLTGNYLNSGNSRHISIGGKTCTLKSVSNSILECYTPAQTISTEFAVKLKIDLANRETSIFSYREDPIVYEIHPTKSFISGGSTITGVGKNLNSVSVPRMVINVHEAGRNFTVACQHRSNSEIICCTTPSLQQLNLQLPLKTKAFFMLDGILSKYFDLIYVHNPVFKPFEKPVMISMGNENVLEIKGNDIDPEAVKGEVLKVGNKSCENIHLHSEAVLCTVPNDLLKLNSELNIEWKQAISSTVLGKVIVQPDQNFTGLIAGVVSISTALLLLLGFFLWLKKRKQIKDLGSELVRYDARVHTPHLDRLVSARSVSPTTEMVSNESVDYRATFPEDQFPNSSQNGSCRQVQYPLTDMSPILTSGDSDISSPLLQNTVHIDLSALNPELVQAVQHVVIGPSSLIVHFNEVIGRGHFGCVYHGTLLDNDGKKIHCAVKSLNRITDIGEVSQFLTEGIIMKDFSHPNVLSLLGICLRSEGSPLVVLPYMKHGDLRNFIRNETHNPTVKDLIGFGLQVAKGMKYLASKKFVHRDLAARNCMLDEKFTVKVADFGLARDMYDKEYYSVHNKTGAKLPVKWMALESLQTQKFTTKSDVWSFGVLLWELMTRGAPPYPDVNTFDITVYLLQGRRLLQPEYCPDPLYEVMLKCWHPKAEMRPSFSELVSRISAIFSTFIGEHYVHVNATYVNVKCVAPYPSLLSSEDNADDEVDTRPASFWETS
T1 sequence (P20794 whole entry): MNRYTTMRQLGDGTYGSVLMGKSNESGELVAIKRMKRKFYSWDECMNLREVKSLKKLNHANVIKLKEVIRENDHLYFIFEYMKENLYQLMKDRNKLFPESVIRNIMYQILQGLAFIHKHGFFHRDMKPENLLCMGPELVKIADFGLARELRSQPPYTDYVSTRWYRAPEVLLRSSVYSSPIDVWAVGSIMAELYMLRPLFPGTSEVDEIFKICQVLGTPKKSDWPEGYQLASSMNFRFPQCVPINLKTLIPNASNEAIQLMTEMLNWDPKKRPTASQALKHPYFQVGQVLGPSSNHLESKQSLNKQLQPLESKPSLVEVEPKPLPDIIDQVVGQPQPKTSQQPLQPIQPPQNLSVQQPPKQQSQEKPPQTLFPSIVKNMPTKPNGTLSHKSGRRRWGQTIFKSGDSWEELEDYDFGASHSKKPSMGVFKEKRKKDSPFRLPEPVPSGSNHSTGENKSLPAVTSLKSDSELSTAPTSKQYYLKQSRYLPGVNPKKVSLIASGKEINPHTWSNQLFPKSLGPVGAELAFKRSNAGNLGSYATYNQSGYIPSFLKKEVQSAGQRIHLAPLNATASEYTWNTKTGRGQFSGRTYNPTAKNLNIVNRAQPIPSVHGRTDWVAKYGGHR

For `COc1cc2c(Oc3ccc(NC(=O)C4(C(=O)Nc5ccc(F)cc5)CC4)cc3F)ccnc2cc1OCCCN1CCOCC1` [Foretinib, foretinib, reference compound], the “% Ctrl” value at MAK came out at 55 % Ctrl.

A word on the Dmax: it is the greatest extent of degradation seen. On to `COc1cc2c(Oc3ccc(NC(=O)C4(C(=O)Nc5ccc(F)cc5)CC4)cc3F)ccnc2cc1OCCCCOCCCCOc1cc(-c2scnc2C)ccc1CNC(=O)[C@@H]1C[C@@H](O)CN1C(=O)[C@H](C(C)C)N1Cc2ccccc2C1=O` [Ex. 45], for which the DC50 on p38α [1], at p38δ [2], at p38α [3] (read-out: p38α DC50) and at p38δ [4] was above 5000 nM each time. For the same compound, the Dmax at p38α [1] turned out to be 27%; on p38δ [2], 43%; at p38α [3] it was 25%; at p38δ [4], 44%.

Turning to `COc1cc2c(Oc3ccc(NC(=O)C4(C(=O)Nc5ccc(F)cc5)CC4)cc3F)ccnc2cc1OCCCOCCCOCCCOc1cc(-c2scnc2C)ccc1CNC(=O)[C@@H]1C[C@@H](O)CN1C(=O)[C@H](C(C)C)N1Cc2ccccc2C1=O` [Ex. 47, N-(3-fluoro-4-((7-(3-(3-(3-(2-(((2S,4R)-4-hydroxy-1-((S)-3-methyl-2-(1-oxoisoindolin-2-yl)butano-yl)pyrrolidine-2-carboxamido)methyl)-5-(4-methylthiazol-5-yl)phenoxy)propoxy)-propoxy)propoxy)-6-methoxyquinolin-4-yl)oxy)phenyl)-N-(4-fluorophenyl)cyclopropane-1,1-dicarboxamide], the DC50 on p38α [1], on p38δ [2], on p38α [3] (read-out: p38α DC50) and at p38δ [4] was above 5000 nM in each case. In addition, the Dmax was found to be 12% at p38α [1], 23% on p38δ [2], 20% at p38α [3] and 33% at p38δ [4].

With `COc1cc2c(Oc3ccc(NC(=O)C4(C(=O)Nc5ccc(F)cc5)CC4)cc3F)ccnc2cc1OCCCOCCOCCC(=O)N[C@H](C(=O)N1C[C@H](O)C[C@H]1C(=O)NCc1ccc(-c2scnc2C)cc1)C(C)(C)C` [Ex. 48, N-(3-fluoro-4-((7-(3-(2-(3-(((S)-1-((2S,4R)-4-hydroxy-2-((4-(4-methylthiazol-5-yl)benzyl)carbamoyl)pyrrolidin-1-yl)-3,3-dimethyl-1-oxobutan-2-yl)amino)-3-oxopropoxy)ethoxy)-propoxy)-6-methoxyquinolin-4-yl)oxy)phenyl)-N-(4-fluorophenyl)cyclopropane-1,1-dicarboxa-mide], the DC50 came to 18.8 nM on p38α [1], 91.7 nM on p38δ [2], 18.8 nM at p38α [3] (setting [5]) and 91.7 nM at p38δ [4]. For the same compound, the Dmax on p38α [1] was found to be 99%; on p38δ [2], 91%; at cMET it was 44%; on p38α [3], 99.4%; at p38δ [4], 91%.

With `COc1cc2c(Oc3ccc(NC(=O)C4(C(=O)Nc5ccc(F)cc5)CC4)cc3F)ccnc2cc1OCCOCCOCCC(=O)N[C@H](C(=O)N1C[C@H](O)C[C@H]1C(=O)NCc1ccc(-c2scnc2C)cc1)C(C)(C)C` [Ex. 49, N-(3-fluoro-4-((7-(2-(2-(3-(((S)-1-((2S,4R)-4-hydroxy-2-((4-(4-methylthiazol-5-yl)benzyl)carba-moyl)pyrrolidin-1-yl)-3,3-dimethyl-1-oxobutan-2-yl)amino)-3-oxopropoxy)ethoxy)ethoxy)-6-methoxyquinolin-4-yl)oxy)phenyl)-N-(4-fluorophenyl)cyclopropane-1,1-dicarboxamide], the DC50 on p38α [1] stood at 40.1 nM; on p38δ [2] it was 51.4 nM; at p38α [3] (setting [5]), 40.1 nM; at p38δ [4] it was 51.4 nM. The Dmax at p38α [1] is 91%; on p38δ [2] it was 81%; on cMET it was 49%; at p38α [3] it was 91%; on p38δ [4], 81%.

For `COc1cc2c(Oc3ccc(NC(=O)C4(C(=O)Nc5ccc(F)cc5)CC4)cc3F)ccnc2cc1OCCCOCCOCCCOc1cc(-c2scnc2C)ccc1CNC(=O)[C@@H]1C[C@@H](O)CN1C(=O)[C@H](C(C)C)N1Cc2ccccc2C1=O` [Ex. 5], the DC50 on p38α [3] (read-out: p38α DC50) was at least 5000 nM; at p38δ [4] it was 4900 nM. Moreover, the values for the Dmax on p38α [3] and on p38δ [4] were 17% and 52%, respectively.
